According to ChEMBL document CHEMBL4840300 (J Nat Prod, 2021):

How the values were obtained:
HaCaT [1] = experiment: Effect on cell cycle distribution in human HaCaT cells assessed as 4N cells at 10 uM pretreated for 6 hrs followed by H2O2 challenge for 24 hrs by propidium iodide staining based flow cytometry analysis (Rvb= 41.0%); type: functional; conditions: time 30 hrs
HaCaT [2] = experiment: Antioxidant activity in human HaCaT cells assessed as reduction in mitochondria-derived ROS production by measuring mean fluorescence intensity at 10 uM preincubated for 6 hrs followed by H2O2 stimulation at 200 uM measured after 24 hrs by mitoSOX staining based flow cytometry analysis; type: functional; conditions: time 30 hrs
[3] = Cytotoxicity against human HaCaT cells assessed as cell viability at 1 to 10 uM incubated for 24 hrs followed by H2O2 stimulation by celltiter-glo assay relative to control; type: cell-based; conditions: dose 1-10 µM, read-out: Activity
HaCaT [4] = experiment: Antioxidant activity in human HaCaT cells assessed as reduction in mitochondria-derived ROS production by measuring mean fluorescence intensity at 10 uM preincubated for 6 hrs followed by H2O2 stimulation at 600 uM measured after 24 hrs by mitoSOX staining based flow cytometry analysis; type: functional; conditions: time 30 hrs
HaCaT [5] = experiment: Antioxidant activity in human HaCaT cells assessed as reduction in mitochondria-derived ROS production by measuring mean fluorescence intensity at 10 uM preincubated for 6 hrs followed by H2O2 stimulation at 400 uM measured after 24 hrs by mitoSOX staining based flow cytometry analysis; type: functional; conditions: time 30 hrs
[6] = Downregulation of IL-1beta mRNA expression in H2O2- stimulated human HaCaT cells at 10 uM incubated for 6 hrs by SPE based fluorescence amplification assay relative to control; type: functional; conditions: time 30 hrs
HaCaT [7] = experiment: Effect on cell cycle distribution in human HaCaT cells assessed as >4N cells at 10 uMpretreated for 6 hrs followed by H2O2 challenge for 24 hrs by propidium iodide staining based flow cytometry analysis (Rvb= 11.1%); type: functional; conditions: dose 10 µM; time 30 hrs
HaCaT [8] = experiment: Effect on cell cycle distribution in human HaCaT cells assessed as accumulation of cells in G2-M phase at 10 uM pretreated for 6 hrs followed by H2O2 challenge for 24 hrs by propidium iodide staining based flow cytometry analysis relative to control; type: functional; conditions: time 30 hrs
Caspase-1 [9] = molecular target: T1, Caspase-1 (Homo sapiens, UniProt P29466); experiment: Binding affinity to recombinant human caspase-1 assessed as dissociation constant measured after 90 sec by SPR method
T1 sequence (P29466 whole entry): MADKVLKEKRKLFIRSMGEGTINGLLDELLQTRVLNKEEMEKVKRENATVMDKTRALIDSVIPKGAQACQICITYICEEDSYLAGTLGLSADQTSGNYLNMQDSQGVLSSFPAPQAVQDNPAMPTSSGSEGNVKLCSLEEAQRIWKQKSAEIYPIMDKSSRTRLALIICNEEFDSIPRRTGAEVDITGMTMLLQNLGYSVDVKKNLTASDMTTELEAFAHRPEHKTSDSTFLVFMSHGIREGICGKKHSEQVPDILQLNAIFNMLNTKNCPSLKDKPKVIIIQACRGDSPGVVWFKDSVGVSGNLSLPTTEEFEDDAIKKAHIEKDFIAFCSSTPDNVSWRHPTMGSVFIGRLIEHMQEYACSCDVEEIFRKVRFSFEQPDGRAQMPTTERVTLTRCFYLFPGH

[10] = Downregulation of caspase-1 mRNA expression in H2O2- stimulated human HaCaT cells at 10 uM incubated for 6 hrs by SPE based fluorescence amplification assay relative to control; type: functional; conditions: time 30 hrs
HaCaT [11] = experiment: Effect on cell cycle distribution in human HaCaT cells assessed as <2N cells at 10 uM pretreated for 6 hrs followed by H2O2 challenge for 24 hrs by propidium iodide staining based flow cytometry analysis (Rvb= 1.88%); type: functional; conditions: time 30 hrs
HaCaT [12] = experiment: Antioxidant activity in human HaCaT cells assessed as reduction in mean fluorescence intensity at 10 uM preincubated for 6 hrs followed by H2O2 stimulation at 600 uM measured after 24 hrs by cellROS staining based flow cytometry analysis; type: functional; conditions: time 30 hrs
HaCaT [13] = experiment: Antioxidant activity in human HaCaT cells assessed as reduction in mean fluorescence intensity at 10 uM preincubated for 6 hrs followed by H2O2 stimulation at 400 uM measured after 24 hrs by cellROS staining based flow cytometry analysis; type: functional; conditions: time 30 hrs
HaCaT [14] = experiment: Effect on cell cycle distribution in human HaCaT cells assessed as 2N cells at 10 uM pretreated for 6 hrs followed by H2O2 challenge for 24 hrs by propidium iodide staining based flow cytometry analysis (Rvb= 17.9%); type: functional; conditions: time 30 hrs
HaCaT [15] = experiment: Cytoprotective activity against H2O2-induced oxidative stress in human HaCaT cells assessed as increase in cell viability at 10 uM incubated for 24 hrs followed by H2O2 stimulation by celltiter-glo assay relative to control; type: functional
[16] = Inhibition of IL-1beta expression in H2O2- stimulated human HaCaT cells at 10 uM incubated for 6 hrs followed by H2O2 stimulation measured after 24 hrs by ELISA relative to control; type: functional; conditions: time 30 hrs
HaCaT [17] = experiment: Anti-pyroptosis activity in human HaCaT cells assessed as reduction in H2O2-induced LDH production at 10 uM incubated for 6 hrs followed by H2O2 stimulation measured after 24 hrs by LDH assay relative to control; type: functional; design: scale not given: the % may be the effect or the level left; conditions: time 30 hrs
HaCaT [18] = experiment: Antiapoptotic activity in human HaCaT cells assessed as reduction in apoptotic cells at 10 uM incubated for 6 hrs followed by H2O2 stimulation measured after 24 hrs by Mitotracker red/annexin V double staining based flow cytometry analysis (Rvb= 12.1%); type: functional; design: scale not given: the % may be the effect or the level left; conditions: time 30 hrs
Caspase-1 (Homo sapiens) [19] = molecular target: T2, Caspase-1 (Homo sapiens) (UniProt P29466); experiment: Inhibition of caspase-1 activity in H2O2-stimulated human HaCaT cells assessed as reduction in enzyme activity at 10 uM using […] as a substrate measured after 2 hrs by colorimetric assay relative to control
T2 sequence (whole entry): T1 sequence (P29466 whole entry)

HaCaT [20] = experiment: Antioxidant activity in human HaCaT cells assessed as reduction in mean fluorescence intensity at 10 uM preincubated for 6 hrs followed by H2O2 stimulation at 200 uM measured after 24 hrs by cellROS staining based flow cytometry analysis; type: functional; conditions: time 30 hrs
HaCaT [21] = experiment: Cytoprotective activity against H2O2-induced oxidative stress in human HaCaT cells assessed as change in cellular ROS level at 10 uM incubated for 6 hrs followed by H2O2 stimulation measured after 24 hrs by DCF-DA dye based fluorescence analysis (reference value: 8.2); type: functional; conditions: time 30 hrs
HaCaT [22] = experiment: Cytoprotective activity against H2O2-induced oxidative stress in human HaCaT cells assessed as change in cellular ROS level at 1 uM incubated for 6 hrs followed by H2O2 stimulation measured after 24 hrs by DCF-DA dye based fluorescence analysis (reference value: 8.2); type: functional; conditions: time 30 hrs
HaCaT [23] = experiment: Anti-pyroptosis activity in human HaCaT cells assessed as reduction in H2O2-induced LDH production at 1 uM incubated for 6 hrs followed by H2O2 stimulation measured after 24 hrs by LDH assay relative to control; type: functional; design: scale not given: the % may be the effect or the level left; conditions: time 30 hrs
Caspase-1 (Homo sapiens) [24] = molecular target: T2, Caspase-1 (Homo sapiens); experiment: Binding affinity to recombinant human caspase-1 assessed as association constant measured after 60 sec by SPR method
Caspase-1 [25] = molecular target: T1, Caspase-1; experiment: Binding affinity to recombinant human caspase-1 assessed as dissociation constant at equilibrium measured after 30 sec by SPR method

C=C(C)[C@@H]1CCC(C)=C[C@H]1c1c(O)cc(CCCCC)cc1O [CANNABIDIOL] gave an Activity (HaCaT [1]) of 45.9%, a Flu intensity (HaCaT [2]) of 75 and a viability at 24 h, up to 10 µM [3] greater than 90%. The Flu intensity (HaCaT [4]) was 73, the Flu intensity (HaCaT [5]) was 78 and the Activity [6] was 50.9%. For the same compound, the Activity (HaCaT [7]) was 4.55%, the Activity (HaCaT [8]) was 16.7% and the Kd (Caspase-1 [9]) was 18.8 nM. It also gave an Activity [10] of 32.9%, an Activity (HaCaT [11]) of 1.81% and a Flu intensity (HaCaT [12]) of 171. The Flu intensity (HaCaT [13]) was 96, the Activity (HaCaT [14]) was 20.5% and the Activity (HaCaT [15]) was 48.6%. It also gave an inhibition at 10 µM [16] of 16.2%, an Activity (HaCaT [17]) of 23.6% and an Activity (HaCaT [18]) of 6.36%. For the same compound, the inhibition (Caspase-1 (Homo sapiens) [19]) was 15.7%, the Flu intensity (HaCaT [20]) was 110 and the “fold change (FC)” value (HaCaT [21]) was 5.13. The “fold change (FC)” value (HaCaT [22]) was 3.96, the Activity (HaCaT [23]) was 20.7% and the Ka (Caspase-1 (Homo sapiens) [24]) was 416 M⁻¹ s⁻¹. For the same compound, the Kd (Caspase-1 [25]) was 0.078 s⁻¹.
